Laboratory results as given in patent US6303596A, “Use of taurolidine for treatment of leukemias” (priority 2000, dated 2001).
Read-outs that look alike come from different tables or passages of the source.

Tests used:
all cells tested = assay: apoptogenic efficiency in all cells tested; assay type: cell-based, human
Procedure: In another study, TUNEL assays were performed on all cell lines 6 hours after cells were initially exposed to taurolidine (cells were treated for 4 hours, rinsed, and then incubated for 2 more hours before TUNEL assay was performed).
. Taurolidine and anisomycin induced apoptosis in MM6, HL-60, and Jurkat cells (Table VIII). MM6 and HL-60 cells were similarly effected, with >80% TUNEL-positive cells after 6 hours. Jurkat cells were less sensitive, with approximately 50% of cells induced to undergo apoptosis after taurolidine treatment. After 6 hours, 73% of anisomycin-treated REH cells were apoptotic, with less than 20% of taurolidine-treated REH cells being TUNEL-positive. However, assay of cells 24 hours after […]

GM5387 (fibroblasts) = assay: trypan blue exclusion, GM5387; assay type: cell-based, human; conditions: GM5387, after taurolidine treatment
Procedure: (§1) FIGS. 11A and 11B depict cell viability and growth rates for GM5387 cell line following taurolidine treatment, in terms of % trypan blue negative cells and % cell number, respectively. Cells were treated with various concentrations of taurolidine for 4 hours in AIM-V+0.01% BCS. After aliquots were collected for LDH assay, the remainder of the culture was rinsed in HBSS and resuspended in RPMI+10% BCS without taurolidine. Counts of trypan blue-negative cells (FIG. 11A), and total cell number (FIG. 11B), were recorded daily thereafter (with the measurement at Day 1 being made immediately after the 4 hour taurolidine treatment). Conditions were: no treatment (open circles); 25 μg/ml taurolidine (closed circles); 50 μg/ml taurolidine (open squares); 100 μg/ml taurolidine (closed squares); and vehicle alone (closed triangles). Doubling times were determined under each condition, and expressed as a percentage of the rate of doubling of untreated cells. These values are located to the right of the growth curves in (FIG. 11B). […]
HL-60 cells treated with 50 μl taurolidine. In these samples, LDH present in the culture medium was 8.3±2.3% of that released by completely lysed cells, compared with 2.3±0.8% measured in control cultures. […] After 4 hour treatment, cells were rinsed and returned to growth medium and monitored for viability and growth over the following 3 days. […]

REH = assay: LDH release (cell membrane integrity), REH; assay type: cell-based; conditions: Homo sapiens, 4 h, read-out: LDH (% of total)
Procedure: as §1, with “8A” for “11A”, “8B” for “11B”, “REH” for “GM5387”, “8A),” for “11A),”, “8B),” for “11B),”, “cells.” for “cells. These values are located to the right of the growth curves in (FIG. 11B).”
In these experiments, integrity of cell membranes following taurolidine treatment was assessed by exclusion of trypan blue and by measuring the release of LDH in MM6, K-562, HL-60, and REH cells. […] A parallel aliquot of cells was lysed by three cycles of freeze/thaw and the quantity of LDH released was taken to be 100%. […]
^a LDH was measured immediately after four hour taurolidine treatment.

granulocytes = assay: TUNEL / propidium iodide flow cytometry, granulocytes; assay type: cell-based, human; conditions: for cytotoxicity at 100 µg/mL: Homo sapiens
Procedure: Human granulocytes were isolated from heparinized blood by diluting blood 1:1 with 6% dextran to sediment RBC, then centrifuging to obtain leukocyte rich plasma. The remaining RBC were lysed by 20 second incubation with 0.2% NaCl. After lysis, NaCl was added to a final concentration of 0.9%, the sample was centrifuged, and the cell pellet resuspended in HBSS containing 0.5% HSA. An equal volume of Histopaque (Sigma) was layered underneath the cell suspension. Upon centrifugation, the PBMC remained above the Histopaque layer, while the granulocytes were sedimented. Purity of collected granulocytes was assayed by flow cytometry using PE-conjugated […].
In the second method, DNA fragmentation was detected via TUNEL assay according to the manufacturer's instructions. With this methodology, 2×10^6 cells were fixed with 2% paraformaldehyde, permeabilized with 0.1% Triton X-100/0.1% citrate, incubated at 37° C. with terminal deoxynucleotidyl transferase and FITC-dUTP, rinsed and analyzed by flow cytometry. Enhanced FITC signal indicates apoptosis-specific DNA fragmentation. Gavriali, et al, "Identification of programmed cell death in situ via specific labeling of nuclear DNA fragmentation," J Cell Biol 119:493 (1992). Parallel aliquots of unfixed cells were treated with PI and FITC-conjugated anti-CD14 and analyzed by flow cytometry, in order to identify cells with permeable cell membranes (since PI binds to DNA but is excluded from cells with intact plasma membranes) and also to determine the cell-specificity of the apoptotic signal.
The effect of taurolidine on granulocytes was assayed by TUNEL analysis on taurolidine-treated purified granulocytes. These experiments were conducted in culture medium rather than whole blood. Granulocytes were treated with 100 μg/ml taurolidine since it had been shown that this concentration of taurolidine is apoptogenic to peripheral blood monocytes treated in culture medium. TUNEL-positive granulocytes ranged from 2% to 30% in untreated samples, and varied according to blood donor. […] Therefore, the apoptogenic effect of taurolidine is not specific to monocytic cells.
^a Analysis by flow cytometry after staining cells with PI and
processing for TUNEL. Data are mean ± SEM of 5 experiments.

O=S1(=O)CCN(CN2CCS(=O)(=O)NC2)CN1 [taurolidine, 4,4'-methylenebis(perhydro-1,2,4-thiadiazin 1,1-dioxide)]
apoptogenic efficiency versus anisomycin (all cells tested): as efficient an apoptogenic agent as the protein synthesis inhibitor anisomycin | trypan blue staining during 4 day growth (GM5387 (fibroblasts)): did not demonstrate a significant increase in trypan blue staining | trypan blue staining during 4 day growth (GM5387 (fibroblasts); listed as Taurolidine): cells remained trypan blue negative | cytotoxicity at 50 µg/mL (REH; 50 μg/ml): 6% | cytotoxicity at 100 µg/mL (REH; 100 μg/ml): 5% | apoptosis of granulocytes (granulocytes; 100 μg/ml taurolidine, within 6 h, culture medium): 92% | cytotoxicity at 100 µg/mL (granulocytes; 6 h, granulocytes, 100 μg/ml taurolidine, mean ± SEM of 5 experiments (Table VII), read-out: % propidium iodide positive): 1.6 ± 0.5% | cytotoxicity at 100 µg/mL (granulocytes; granulocytes, 100 μg/ml, 6 hours (Table V), read-out: % Propidium Iodide Positive Cells): 2% | effectiveness in granulocytes relative to monocytes (granulocytes; TUNEL, purified cells in culture medium): at least as effective | % TUNEL-positive (granulocytes; granulocytes, 100 μg/ml taurolidine, mean ± SEM of 5 experiments (Table VII)): 91.5 ± 3.5% | % TUNEL-Negative Cells (granulocytes; granulocytes, 100 μg/ml, 6 hours (Table V)): 8%
